Test system: T1, GCaMP5-expressing T. gondii
T1 construct: whole extracellular parasites expressing GCaMP5 Ca2+ sensor
Parameters: species or system GCaMP5-expressing Toxoplasma gondii, extracellular; GCaMP5 fluorescence (cytosolic Ca2+) after 100 uM zaprinast in compound-pretreated extracellular parasites, background-subtracted, relative to zaprinast alone
Conditions: 100 uM zaprinast stimulation; 10 min pretreatment; mean of two replicates; 0.23 h
Description: GCaMP5-expressing parasites were suspended in Ringer's solution at 4 × 10^7 parasites/ml, and 50 μl of parasites were applied to each well of a 96-well plate (Costar, catalog no. 3631). […] Parasites were then treated with 100 μM zaprinast or 0.1% DMSO as a vehicle control and incubated at 37 °C with 5% CO2 for an additional 4 min before measuring fluorescence with excitation and emission wavelengths of 485 and 525 nm, respectively, on a SpectraMax M3 (Molecular Devices). Basal fluorescence, measured from untreated parasites, was subtracted from all values, and results were expressed as -fold change from parasites treated only with zaprinast. Z′ factors were determined from (i) parasites treated with zaprinast versus untreated parasites and (ii) parasites treated with a final concentration of 1 μM Cpd2 or a vehicle control followed by zaprinast, using the formula, Z′ = 1 − 3(σp + σn)/(|μp − μn|), where σp and σn indicate S.D. values of positive and negative controls, and μp and μn indicate the means of positive and negative controls, respectively. […] We predicted that the zaprinast response measured in GCaMP5-expressing parasites could form the basis for a phenotypic screen. Such a screen would benefit from the known importance of Ca^2+ signaling in parasite biology along with the reported success rate of cell-based phenotypic assays. We designed a screen wherein extracellular GCaMP5-expressing parasites were pretreated with compounds for 10 min before stimulation with zaprinast, and parasite fluorescence was measured 4 min later. We expected that compounds that interfered with the zaprinast response would reduce fluorescence. We calculated a Z′-factor for this screen to determine its dynamic range and suitability to high throughput screening. To do so, we compared zaprinast-treated parasites to untreated parasites or those pretreated with the PKG inhibitor Compound 2 (Cpd2) ([55]). […] We obtained the compound libraries published kinase inhibitor sets PKIS1 ([57]) and PKIS2 (unpublished), from GlaxoSmithKline and applied our phenotypic screen to the 823 ATP mimetics represented in these collections (Fig. 2B and supplemental Table S1). The compounds were screened at a single 10 μM dose with two biological replicates.

Cc1ccc(F)c(C(=O)Nc2cccc(-c3nn4ccccc4c3-c3ccnc(Nc4cccc(F)c4)n3)c2)c1F [GSK361061A]
fold change in fluorescence relative to zaprinast alone: 0.9289

COc1cccc(OC)c1C(=O)Nc1cccc(-c2nn3ccccc3c2-c2ccnc(Nc3cccc(F)c3)n2)c1 [GSK361065A]
fold change in fluorescence relative to zaprinast alone: 0.9782

COc1ccccc1CNC(=O)c1cc(C(=O)c2ccccc2C)c[nH]1 [GSK364507A]
fold change in fluorescence relative to zaprinast alone: 1.353

NS(=O)(=O)c1cccc(N=Cc2c(O)[nH]c3ccc(S(=O)(=O)Cc4c(Cl)cccc4Cl)cc23)c1 [GSK398099A]
fold change in fluorescence relative to zaprinast alone: 1.056

CC1=C(C(=O)Nc2cc3cn[nH]c3cc2F)C(c2ccc(C(F)(F)F)cc2)CC(=O)N1 (centres unmarked) [GSK429286A]
fold change in fluorescence relative to zaprinast alone: 1.046

COc1cc2ncn(-c3cc(OCc4sccc4Cl)c(C(N)=O)s3)c2cc1OC [GSK448459A]
fold change in fluorescence relative to zaprinast alone: 1.439

CC1=C(C(=O)Nc2ccc3[nH]nc(C)c3c2)C(c2ccc(C(F)(F)F)cc2)CC(=O)N1 (centres unmarked) [GSK466314A]
fold change in fluorescence relative to zaprinast alone: 1.189

CC1=C(C(=O)Nc2cc(Cl)c3[nH]ncc3c2)C(c2ccc(C(F)(F)F)cc2)CC(=O)N1 (centres unmarked) [GSK466317A]
fold change in fluorescence relative to zaprinast alone: 1.01

C[C@@H](Oc1cc(-n2cnc3cc(-c4ccncc4)ccc32)sc1C(N)=O)c1ccccc1Cl [GSK479719A]
fold change in fluorescence relative to zaprinast alone: 1.296

C[C@@H](Oc1cc(-n2cnc3ccc(-c4ccncc4)cc32)sc1C(N)=O)c1ccccc1Cl [GSK483724A]
fold change in fluorescence relative to zaprinast alone: 1.04

CCn1c(-c2nonc2N)nc2c(C#CC(C)(C)O)ncc(OCCCCN)c21 [GSK507274A]
fold change in fluorescence relative to zaprinast alone: 1.063

Cc1[nH]nc2ccc(-c3cc(OC[C@@H](N)Cc4ccccc4)cnc3-c3ccoc3)cc12 [GSK507358A]
fold change in fluorescence relative to zaprinast alone: 0.7404

COc1cc(C2=NC(c3ccc(Cl)cc3F)C(C(=O)Nc3ccc4[nH]ncc4c3)=C(C)N2)ccn1 (centres unmarked) [GSK534911A]
fold change in fluorescence relative to zaprinast alone: 1.41

COc1ccc(C2=NC(c3ccc(Cl)cc3F)C(C(=O)Nc3ccc4[nH]ncc4c3)=C(C)N2)cn1 (centres unmarked) [GSK534913A]
fold change in fluorescence relative to zaprinast alone: 1.286

CCn1c(-c2nonc2N)nc2c(C#CCN)ncc(OCCCN)c21 [GSK561866B]
fold change in fluorescence relative to zaprinast alone: 1.218

C[C@@H](Oc1cc(-n2cnc3ccc(OCC4CCN(C)CC4)cc32)sc1C(N)=O)c1ccccc1Cl [GSK571989A]
fold change in fluorescence relative to zaprinast alone: 0.9822

C[C@@H](Oc1cc(-n2cnc3ccc(OC4CCN(C)CC4)cc32)sc1C(N)=O)c1ccccc1Cl [GSK579289A]
fold change in fluorescence relative to zaprinast alone: 0.9541

C[C@@H](Oc1cc(-n2cnc3cc(-c4cnn(C)c4)ccc32)sc1C(N)=O)c1ccccc1Cl [GSK580432A]
fold change in fluorescence relative to zaprinast alone: 1.313

Cc1ccc(S(=O)(=O)Nc2ccc(Nc3nccc(Nc4cccc5[nH]ncc45)n3)cc2)cc1 [GSK581271A]
fold change in fluorescence relative to zaprinast alone: 0.8813

COc1ccc(-c2ccncc2)cc1C(N)=O [GSK605714A]
fold change in fluorescence relative to zaprinast alone: 1.144

CCn1c(-c2nonc2N)nc2c(C#CC(C)(C)O)ncc(OC[C@@H]3CCCN3)c21 [GSK614526A]
fold change in fluorescence relative to zaprinast alone: 1.198

CCn1c(-c2nonc2N)nc2c(C#CC(C)(C)O)ncc(OC3CCNCC3)c21 [GSK619487A]
fold change in fluorescence relative to zaprinast alone: 1.184

NC(=O)c1cc(-c2ccc(F)cc2)cc(-c2ccncc2)c1N [GSK620503A]
fold change in fluorescence relative to zaprinast alone: 1.057

NC(=O)c1cc(-c2ccncc2)cc(-c2ccccc2)c1N [GSK625137A]
fold change in fluorescence relative to zaprinast alone: 1.053

CNC(=O)c1cc(-c2ccc(F)cc2)cc(-c2ccc(S(=O)(=O)N3CCCC3)cc2)c1N [GSK635416A]
fold change in fluorescence relative to zaprinast alone: 1.111

C[C@@H](Oc1cc(-n2cnc3cc(-c4ccnc(N5CCN(C)CC5)c4)ccc32)sc1C(N)=O)c1ccccc1Cl [GSK641502A]
fold change in fluorescence relative to zaprinast alone: 1.062

Nc1ncc(-c2cccnc2)c2scc(-c3ccc4c(c3)CCN4C(=O)Cc3ccccc3)c12 [GSK683281A]
fold change in fluorescence relative to zaprinast alone: 1.385

COc1c(C(N)=O)cc(-c2ccc(Cl)cc2)cc1-c1ccc(S(N)(=O)=O)cc1 [GSK711701A]
fold change in fluorescence relative to zaprinast alone: 1.357

CCn1cc(-c2ccnc3[nH]ccc23)c(-c2cccc(NC(=O)Nc3ccc(OCc4ccccc4)cc3)c2)n1 [GSK718429A]
fold change in fluorescence relative to zaprinast alone: 1.268

O=S(=O)(c1ccc(-c2ccnc3[nH]ccc23)cc1)N1CCCC1 [GSK846226A]
fold change in fluorescence relative to zaprinast alone: 1.029

CCn1c(-c2nonc2N)nc2c(C#CC(C)(C)O)nc(OCCN)cc21 [GSK902056A]
fold change in fluorescence relative to zaprinast alone: 1.153

C[C@@H](Oc1cc(-n2cnc3cc(-c4ccnc(NCCS(C)(=O)=O)c4)ccc32)sc1C(N)=O)c1ccccc1Cl [GSK907232A]
fold change in fluorescence relative to zaprinast alone: 1.132

CCn1c(-c2nonc2N)nc2c(C#CC(C)(C)O)nc(OC[C@@H](N)c3ccccc3)cc21 [GSK938890A]
fold change in fluorescence relative to zaprinast alone: 1.022

CCn1c(-c2nonc2N)nc2c(C#CC(C)(C)O)nc(OC[C@H](N)c3ccccc3)cc21 [GSK943949A]
fold change in fluorescence relative to zaprinast alone: 1.114

CCn1c(-c2nonc2N)nc2c(C#CC(C)(C)O)nc(OCCNC)cc21 [GSK949675A]
fold change in fluorescence relative to zaprinast alone: 1.152

NS(=O)(=O)c1ccc(-c2cc3ccncc3cc2OCc2ccccc2)cc1 [GSK953913A]
fold change in fluorescence relative to zaprinast alone: 1.131

Cc1ccc(NC(=O)Nc2cccc(C(F)(F)F)c2)cc1 [GSK955403A]
fold change in fluorescence relative to zaprinast alone: 0.9183

Fc1cccc(COc2ccc(Nc3ncnc4sc(-c5ccco5)cc34)cc2Cl)c1 [GSK969786A]
fold change in fluorescence relative to zaprinast alone: 0.8987

NCCNS(=O)(=O)c1ccc(-c2ccnc3[nH]ccc23)cc1 [GSK977617A]
fold change in fluorescence relative to zaprinast alone: 1.223

CN(C)CCNS(=O)(=O)c1ccc(-c2ccnc3[nH]ccc23)cc1 [GSK977620A]
fold change in fluorescence relative to zaprinast alone: 1.218

NS(=O)(=O)c1cccc(-c2cc3ccncc3cc2OCc2ccccc2)c1 [GSK980961A]
fold change in fluorescence relative to zaprinast alone: 0.9595

Cc1cccc(Nc2nc(N[C@H]3CCCC[C@H]3N)ncc2C(N)=O)c1 [GSK986310C]
fold change in fluorescence relative to zaprinast alone: 1.388

CS(=O)(=O)Nc1ccc(-c2ccnc3[nH]ccc23)cc1 [GSK993273A]
fold change in fluorescence relative to zaprinast alone: 1.181

CCCN1CCC=C(c2ccc(Nc3nc(Nc4ccccc4C(N)=O)c4cc[nH]c4n3)c(C)c2)C1 [GSK994854A]
fold change in fluorescence relative to zaprinast alone: 1.737

CCn1c(-c2nonc2N)nc2c(C#CC(C)(C)O)nc(CN3CCCC3)cc21 [GSK1000163A]
fold change in fluorescence relative to zaprinast alone: 1.153

CCn1c(-c2nonc2N)nc2c(C#CC(C)(C)O)nc(O[C@@H](CN)c3ccccc3)cc21 [GSK1007102B]
fold change in fluorescence relative to zaprinast alone: 1.188

Cc1ccc(NC(=O)Nc2cc(C(C)(C)C)nn2-c2ccccc2)cc1 [GSK1014915A]
fold change in fluorescence relative to zaprinast alone: 0.9452

NC(=O)c1sc(-n2cnc3ccccc32)cc1OCc1ccccc1Br [GSK1023156A]
fold change in fluorescence relative to zaprinast alone: 0.8843

COC(=O)c1sc(-n2cnc3cc(OC)c(OC)cc32)cc1OCc1ccccc1C(F)(F)F [GSK1030058A]
fold change in fluorescence relative to zaprinast alone: 0.7743

COc1cc2ncn(-c3cc(OCc4ccccc4C(F)(F)F)c(C(C)=O)s3)c2cc1OC [GSK1030059A]
fold change in fluorescence relative to zaprinast alone: 1.158

CNC(=O)c1sc(-n2cnc3cc(OC)c(OC)cc32)cc1OCc1ccccc1C(F)(F)F [GSK1030061A]
fold change in fluorescence relative to zaprinast alone: 1.028

COc1cc2ncn(-c3cc(OCc4ccccc4C(F)(F)F)c(C(=O)N(C)C)s3)c2cc1OC [GSK1030062A]
fold change in fluorescence relative to zaprinast alone: 0.999

O=c1[nH]cc(-c2ccc(O)cc2)c2sc(-c3ccncc3)cc12 [GSK1033723A]
fold change in fluorescence relative to zaprinast alone: 1.385
